Literature values as cited in patent US9682924B2, “Crystalline form of VSN16” (CANBEX THERAPEUTICS LIMITED, priority 2013, dated 2017).

How the values were obtained:
mesenteric arteries = details: for antagonism of VSN16 vasorelaxation: antagonist against VSN16-induced vasorelaxation, rimonabant and AM 251 at high concentrations
spasticity in CREAE mice = details: without producing significant adverse CNS effects
CB1 receptors = biological target: T1, CB1 receptors (Rattus norvegicus, UniProt P20272); details: rat cerebellum
T1 construct: from tissue; host or cells: rat cerebellum
T1 sequence (P20272 whole entry): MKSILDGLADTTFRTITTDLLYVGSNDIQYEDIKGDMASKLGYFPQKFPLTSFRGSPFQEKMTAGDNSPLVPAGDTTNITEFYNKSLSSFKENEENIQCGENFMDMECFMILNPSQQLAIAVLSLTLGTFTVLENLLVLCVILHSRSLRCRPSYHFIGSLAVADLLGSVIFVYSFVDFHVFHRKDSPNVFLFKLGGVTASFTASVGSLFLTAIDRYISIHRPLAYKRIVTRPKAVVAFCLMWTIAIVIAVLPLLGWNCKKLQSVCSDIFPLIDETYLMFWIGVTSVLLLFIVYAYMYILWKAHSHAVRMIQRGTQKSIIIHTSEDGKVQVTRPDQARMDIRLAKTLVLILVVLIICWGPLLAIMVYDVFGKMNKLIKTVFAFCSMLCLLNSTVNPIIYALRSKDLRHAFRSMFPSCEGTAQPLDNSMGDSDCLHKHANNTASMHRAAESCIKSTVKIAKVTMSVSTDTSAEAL

Q: For `Cc1c(C(=O)NN2CCCCC2)nn(-c2ccc(Cl)cc2Cl)c1-c1ccc(I)cc1` [AM 251], which “antagonism of VSN16 vasorelaxation” value (mesenteric arteries) is on record?
A: antagonized

Q: Which “antagonism of VSN16 vasorelaxation” value (mesenteric arteries) does the source give for `C=C(C)[C@@H]1CCC(C)=C[C@H]1c1c(OC)cc(C)cc1OC` [O-1918] here?
A: antagonized

Q: For `CC(CO)NC(=O)c1cccc(/C=C\CCCC(=O)N(C)C)c1` (centres unmarked) [VSN16], which effect on spasticity (spasticity in CREAE mice) is on record?
A: marked effect on spasticity

Q: What about the “relaxation of mesenteric arteries” value (mesenteric arteries; endothelium-dependent) of the same molecule?
A: relaxes mesenteric arteries in an endothelium-dependent manner

Q: And the “effect on [3H]CP55,940 binding to CB1 receptors” value (CB1 receptors)?
A: does not affect

Q: And the blood pressure (conscious rats)?
A: transiently increases blood pressure

Q: What about the mesenteric vascular conductance (conscious rats) of the same molecule?
A: longer-lasting increase in mesenteric vascular conductance

Q: With `Cc1c(C(=O)NN2CCCCC2)nn(-c2ccc(Cl)cc2Cl)c1-c1ccc(Cl)cc1` [rimonabant] as the molecule, how does the “antagonism of VSN16 vasorelaxation” value (mesenteric arteries) read?
A: antagonized
